Assay results as given in the supplement of paper PMC10307832.

How the values were obtained:
Assay in all cases: relative viability (nuclei count vs DMSO), 5 days (fraction); higher = more cells survive
[1] = compound: C/C(=N\NC(=S)N1CCC1)/C2=CC=CC=N2 + CS(=O)(=O)N1CCN(Cc2cc3nc(-c4cccc5[nH]ncc45)nc(N4CCOCC4)c3s2)CC1 [Pictilisib] (partner 1 µM)
Outline: (§1)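 A single step with final 0.05% Triton X-100, 1% formaldehyde and 1 ug/ml Hoechst fixed the cells and stained nuclei 5 days after treatment. Lung cancer cell lines in 1536-well plates had been treated by pin tool the day after seeding with one drug alone or a fixed anchor-drug dose plus five library-drug doses (not always all listed) in √10 steps, and nuclei were counted on 4× images. Relative viability is the ratio of nuclei in treated wells to nuclei in vehicle wells, taken as the median of duplicate plates.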

[2] = compound: C/C(=N\NC(=S)N1CCC1)/C2=CC=CC=N2 + CC(=O)c1c(C)c2cnc(Nc3ccc(N4CCNCC4)cn3)nc2n(C2CCCC2)c1=O [Palbociclib] (partner 0.5 µM)
Outline: as §1

[3] = compound: C/C(=N\NC(=S)N1CCC1)/C2=CC=CC=N2 + Nc1ncn([C@H]2C[C@H](O)[C@@H](CO)O2)c(=O)n1 [Decitabine] (partner 2 µM)
Outline: as §1

[4] = compound: C/C(=N\NC(=S)N1CCC1)/C2=CC=CC=N2 + N=C(N)NC(=N)NCCc1ccccc1 [Phenformin] (partner 250 µM)
Outline: as §1

Cell Line	relative viability ([1]; first compound 0.05 µM)	relative viability ([1]; first compound 0.1581 µM)	relative viability ([1]; first compound 0.5 µM)	relative viability ([1]; first compound 1.581 µM)	relative viability ([1]; first compound 5 µM)	relative viability ([2]; first compound 0.05 µM)	relative viability ([2]; first compound 0.1581 µM)	relative viability ([2]; first compound 0.5 µM)	relative viability ([2]; first compound 1.581 µM)	relative viability ([2]; first compound 5 µM)	relative viability ([3]; first compound 0.05 µM)	relative viability ([3]; first compound 0.1581 µM)	relative viability ([3]; first compound 0.5 µM)	relative viability ([3]; first compound 1.581 µM)	relative viability ([3]; first compound 5 µM)	relative viability ([4]; first compound 0.05 µM)	relative viability ([4]; first compound 0.1581 µM)	relative viability ([4]; first compound 0.5 µM)	relative viability ([4]; first compound 1.581 µM)	relative viability ([4]; first compound 5 µM)
H3255	0.244	0.23	0.192	0.222	0.203	0.259	0.278	0.304	0.259	0.266	0.211	0.231	0.24	0.209	0.228	0.318	0.333	0.317	0.301	0.346
EPLC-272H	0.159	0.159	0.149	0.12	0.138	0.117	0.138	0.155	0.056	0.0855	0.123	0.111	0.109	0.062	0.101	0.112	0.13	0.084	0.0614	0.122
PC-3 [JPC-3]	0.278	0.319	0.31	0.279	0.221	0.328	0.485	0.409	0.362	0.373	0.534	0.526	0.418	0.344	0.324	0.332	0.342	0.334	0.277	0.195
NCI-H1793	0.195	0.203	0.163	0.172	0.15	0.191	0.162	0.146	0.155	0.174	0.276	0.193	0.218	0.138	0.166	0.131	0.201	0.188	0.147	0.156
EKVX	0.113	0.127	0.115	0.107	0.124	0.13	0.149	0.109	0.141	0.158	0.15	0.138	0.13	0.138	0.16	0.14	0.132	0.167	0.161	0.23
ChaGo-K-1	0.233	0.392	0.232	0.237	0.293	0.144	0.408	0.144	0.132	0.148	0.159	0.321	0.147	0.174	0.178	0.176	0.194	0.188	0.152	0.174
NCI-H23	0.132	0.16	0.159	0.132	0.117	0.143	0.174	0.168	0.133	0.164	0.178	0.2	0.161	0.172	0.202	0.144	0.164	0.185	0.117	0.139
EMC-BAC-2	0.0912	0.166	0.173	0.193	0.19	0.274	0.324	0.261	0.223	0.253	0.261	0.268	0.228	0.219	0.212	0.156	0.233	0.214	0.211	0.212
LOU-NH91	0.367	0.428	0.439	0.374	0.356	0.486	0.526	0.496	0.388	0.389	0.625	0.626	0.579	0.462	0.495	0.371	0.403	0.352	0.262	0.419
LU99A	0.12	0.106	0.0914	0.146	0.122	0.14	0.312	0.129	0.127	0.121	0.222	0.624	0.171	0.162	0.173	0.163	0.189	0.145	0.143	0.178
NCI-H1395	0.386	0.371	0.305	0.343	0.377	0.33	0.333	0.329	0.366	0.381	0.331	0.36	0.357	0.354	0.377	0.279	0.349	0.364	0.307	0.389
NCI-H460	0.108	0.12	0.0972	0.13	0.0516	0.018	0.0146	0.0188	0.0169	0.0139	0.0547	0.04	0.0328	0.0221	0.0138	0.0303	0.0322	0.0348	0.0156	0.0113
201T	0.438	0.494	0.444	0.389	0.344	0.27	0.351	0.307	0.213	0.205	0.553	0.802	0.348	0.29	0.28	0.362	0.355	0.343	0.311	0.247
NCI-H1944	0.229	0.305	0.241	0.182	0.182	0.253	0.3	0.166	0.148	0.129	0.225	0.413	0.158	0.116	0.143	0.119	0.144	0.127	0.145	0.146
NCI-H2405	0.185	0.206	0.232	0.209	0.275	0.217	0.25	0.26	0.214	0.21	0.284	0.246	0.24	0.239	0.246	0.21	0.235	0.24	0.199	0.262
NCI-H1703	0.102	0.0942	0.162	0.159	0.167															

Cell Line	relative viability ([1]; first compound 0.05 µM)	relative viability ([1]; first compound 0.1581 µM)	relative viability ([1]; first compound 0.5 µM)	relative viability ([1]; first compound 1.581 µM)	relative viability ([1]; first compound 5 µM)	relative viability ([2]; first compound 0.05 µM)	relative viability ([2]; first compound 0.1581 µM)	relative viability ([2]; first compound 0.5 µM)	relative viability ([2]; first compound 1.581 µM)	relative viability ([2]; first compound 5 µM)	relative viability ([3]; first compound 0.05 µM)	relative viability ([3]; first compound 0.1581 µM)	relative viability ([3]; first compound 0.5 µM)	relative viability ([3]; first compound 1.581 µM)	relative viability ([3]; first compound 5 µM)	relative viability ([4]; first compound 0.05 µM)	relative viability ([4]; first compound 0.1581 µM)	relative viability ([4]; first compound 0.5 µM)	relative viability ([4]; first compound 1.581 µM)	relative viability ([4]; first compound 5 µM)
NCI-H1755	0.171	0.168	0.162	0.157	0.136	0.407	0.452	0.33	0.294	0.303	0.503	0.664	0.311	0.271	0.346	0.328	0.311	0.288	0.33	0.271
NCI-H2087	0.302	0.219	0.258	0.205	0.153	0.104	0.0945	0.12	0.118	0.0998	0.136	0.0973	0.107	0.103	0.0802	0.141	0.156	0.166	0.0953	0.0819
NCI-H2228	0.148	0.285	0.168	0.163	0.12	0.134	0.167	0.127	0.0641	0.315						0.127	0.158	0.172		0.111
NCI-H727	0.236	0.195	0.154	0.15	0.139	0.346	0.393	0.363	0.314	0.439	0.406	0.366	0.394	0.398	0.466	0.29	0.314	0.341	0.375	0.382
NCI-H650	0.234	0.235	0.25	0.201	0.202	0.143	0.197	0.146	0.144	0.128	0.169	0.192	0.187	0.186	0.157	0.23	0.277	0.208	0.247	0.189
NCI-H520	0.176	0.186	0.18	0.16	0.208	0.119	0.139	0.121	0.114	0.151	0.161	0.167	0.145	0.159	0.17	0.149	0.255	0.168	0.143	0.251
EBC-1	0.164	0.205	0.187	0.116	0.14															
NCI-H661	0.222	0.239	0.232	0.237	0.21	0.284	0.252	0.251	0.231	0.223	0.274	0.26	0.218	0.236	0.232	0.262	0.269	0.254	0.211	0.231
NCI-H1299	0.0583	0.0875	0.103	0.0673	0.0511															
NCI-H1648						0.258	0.301	0.322	0.352	0.337	0.274	0.248	0.3	0.338	0.353					
SW 900						0.171	0.136	0.134	0.175	0.197	0.21	0.231	0.16	0.201	0.17	0.0993	0.114	0.105	0.0942	0.147
NCI-H596	0.251	0.257	0.223	0.212	0.277						0.887	0.408	0.335	0.317	0.418	0.301	0.391	0.324	0.239	0.259
IA-LM	0.0879	0.0508	0.0707	0.0558	0.0544															
NCI-H1563	0.593	0.519	0.614	0.561	0.584											0.374	0.472	0.491	0.506	0.611
NCI-H522						0.432	0.376	0.284	0.381	0.412	0.402	0.456	0.333	0.345	0.385		0.27	0.398		0.503
CAL-12T	0.168	0.198	0.138	0.167	0.178	0.0958	0.145	0.131	0.109	0.122						0.171	0.15	0.136	0.112	0.101
